Data reported in the NIST ThermoML archive (doi:10.1021/je100605v).

Details: Liquid, Closed cell (Static) method

CCO[Si](CC)(OCC)OCC [ethyltriethoxysilane]
Details	vapor or sublimation pressure [kPa]
335 K	2.325
340.8 K	3.325
346.2 K	4.325
350.4 K	5.325
359.9 K	8.325
367.1 K	11.32
372.9 K	14.32
377.7 K	17.32
382 K	20.32
385.8 K	23.32
389 K	26.33
392 K	29.32
394.8 K	32.33
397.4 K	35.33
399.9 K	38.32
402.2 K	41.33
404.1 K	44.33
405.5 K	47.32
407.6 K	50.33
410.1 K	53.32
411.9 K	56.33
413.7 K	59.33
415.4 K	62.32
416.8 K	65.32
418.3 K	68.33
419.4 K	71.33
420.6 K	74.33
421.8 K	77.33
423.7 K	80.32
425.4 K	83.33
426.7 K	86.33
427.9 K	89.33
429.1 K	92.33
430.2 K	95.32
431.3 K	98.32
432 K	100.33
